Measurements published in patent US20220162215A1, “COMPOSITIONS AND METHODS OF USING THE SAME FOR TREATMENT OF NEURODEGENERATIVE AND MITOCHONDRIAL DISEASE” (MITOKININ, INC., priority 2019, published 2022).
pEC50: −log10 of the molar value. Where two headings read alike, the source gives them in different places.

Legend:
[1] = Visual inspection of crystallization; type: physicochemical; parameters: key: 1: yes crystals; 0: no crystals; settings: Tables 5A-5D
Method: (§2) Briefly, the Hela MKYP (Mito-Keima/YFP-Parkin) cells were seeded at 10K cells/well. EP/MTK compounds were added at seeding (cells were still in suspension). The cells were incubated with the EP/MTK compounds for 16 hours, then 1 μM FCCP/oligomycin was added for 6 hours. Prior to harvesting, cells were scored by eye under 20× magnification for the presence or absence of crystalline or aggregated compound, or round cells.

HeLa MKYP cells [2] = test: Toxicity / cell death measured by DAPI staining (take-up); type: cell-based; settings: for Toxicity (% positive for DAPI take-up at 50 μM)*: Table 3 Supplement A
Method: H2O2 treatment was performed as a control for cell death as measured by DAPI staining.
(§1) Briefly, HeLa MKYP cells were plated at 10,000 cells/well in 96 well plates along with compounds at various concentrations. Following 16 hrs of incubation, cells were treated with 1 uM FCCP/oligomycin for 6 hours, then analyzed via FACS for the presence of mitochondria in lysosomes (as determined by an emissions spectrum shift from the pH-sensitive mtKeima tag).

[3] = test system: Hela MKYP (Mito-Keima/YFP-Parkin) cells; test: Inspection of round cells; settings: Tables 6A-6D
Method: as §2

HeLa MKYP cells [4] = test: Human mitophagy assay (HeLa MKYP, mtKeima FACS, FCCP/oligomycin); type: cell-based; settings: Homo sapiens, HeLa; for EC50: Table 3 Supplement A, as measured in Table 3, read-out: Potency (EC50 Max Mitophagy) (μM)*; for activation at 1.6 µM / activation at 6.3 µM: 6 h, read-out: Potency at 1 μM F/O toxin*; for activation at 1.6 µM: Table 2, % activation of mitophagy at 1.6 μM treatment of the compound; for activation at 6.3 µM: % activation of mitophagy at 6.3 μM treatment of the compound
Method: as §1, with “tag). Examples are shown in FIG. 1 through FIG. 13 below.” for “tag).”

[5] = Table 3, read-out: Potency at 1 μM F/O toxin* (EC50 of mitophagy activation)

| SMILES | Visual inspection of crystallization ([1]; 1.6 μM) | Visual inspection of crystallization ([1]; 3.1 μM) | Visual inspection of crystallization ([1]; 6.3 μM) | Visual inspection of crystallization ([1]; 12.5 μM) | Visual inspection of crystallization ([1]; 25.0 μM) | Visual inspection of crystallization ([1]; 50.0 μM) | Toxicity (% positive for DAPI takeup @ 50 μM) (HeLa MKYP cells [2]; Table 3) | Toxicity (% positive for DAPI take-up at 50 μM)* (HeLa MKYP cells [2]) | Inspection of round cells ([3]; 1.6 μM) | Inspection of round cells ([3]; 3.1 μM) | Inspection of round cells ([3]; 6.3 μM) | Inspection of round cells ([3]; 12.5 μM) | Inspection of round cells ([3]; 25.0 μM) | Inspection of round cells ([3]; 50.0 μM) | pEC50 (HeLa MKYP cells [4]; [5]) | EC50 (HeLa MKYP cells [4]) | further results |
| --- | --- | --- | --- | --- | --- | --- | --- | --- | --- | --- | --- | --- | --- | --- | --- | --- | --- |
| C[C@H](Nc1ncnc2[nH]cnc12)c1ccccc1 [Compound 27] | 0 | 0 | 0 | 0 | 0 | 0 | 11.7% | 13.52% | 0 | 0 | 0 | 0 | 0 | 0 | 5.70 | 2.09 µM |  |
| CC(Nc1ncnc2[nH]cnc12)c1ccccc1 (stereo not shown) [Compound 71] | 0 | 0 | 0 | 0 | 0 | 0 | 18.2% | 22.24% | 0 | 0 | 0 | 0 | 0 | 0 | 5.46 | 2.69 µM |  |
| CCC(Nc1ncnc2[nH]c(C(F)(F)F)cc12)c1cncnc1 (stereo not shown) [Compound 43] | 0 | 0 | 0 | 0 | 0 | 0 | 15.9% | 15.86% | 0 | 0 | 0 | 0 | 0 | 0 | 4.73 | 18.8 µM |  |
| CCCCNc1ncnc2[nH]c(C(F)(F)F)c(C)c12 [Compound 68] | 0 | 0 | 0 | 0 | 0 | 0 | 11.9% | 11.94% | 0 | 0 | 0 | 0 | 0 | 0 | < 4.30 | > 25 µM |  |
| COc1ncc(CNc2ncnc3[nH]c(C(F)(F)F)cc23)cn1 [Compound 66] | 0 | 0 | 0 | 0 | 1 | 1 | 5.8% | 5.76% | 0 | 0 | 0 | 0 | 1 | 1 | 4.97 | 10.6 µM |  |
| C[C@@H](Nc1ncnc2[nH]c(C(F)(F)F)cc12)c1ccccc1 [Compound 38] | 0 | 0 | 0 | 0 | 0 | 0 | 63.7% | 52.58% | 0 | 0 | 0 | 0 | 0 | 1 | 5.51 | 3.62 µM |  |
| FC(F)(F)c1cc2c(NCc3ccccc3)ncnc2[nH]1 [Compound 9] |  |  |  |  |  |  |  |  |  |  |  |  |  |  |  |  | Toxicity (% positive for DAPI takeup @ 50 μM) (HeLa MKYP cells [2]; Table 2): 50.4%; activation at 1.6 µM (HeLa MKYP cells [4]): 35.1% |
| C[C@H](Nc1ncnc2[nH]c(C(F)(F)F)cc12)c1ccccc1 [Compound 40] |  |  |  |  |  |  | 90.8% | 92.03% |  |  |  |  |  |  | 6.52 | 0.02 µM |  |
| Cc1nc2c(N[C@@H](C)c3ccccc3)ncnc2[nH]1 [Compound 74] |  |  |  |  |  |  | 31.9% | 31.93% |  |  |  |  |  |  | 5.34 | 4.65 µM |  |
| c1ccc2c(c1)OCC[C@H]2Nc1ncnc2[nH]c(C3CC3)cc12 [Compound 111] |  |  |  |  |  |  | 17.3% |  |  |  |  |  |  |  | 5.70 |  | Max cell death at 25 uM compound, 1 uM FO (HeLa MKYP cells [2]; Table 3 Supplement B, 25 uM compound, 1 uM FO): 17.3%; Cell death at 25 μM (no FO) (HeLa MKYP cells [2]; Table 3 Supplement B, 25 μM, no FO): 7.26%; pEC50 (HeLa MKYP cells [4]; Table 3 Supplement B, read-out: Mitophagy EC50 (HeLa mKeima assay)): 5.70 |
| FC(F)(F)c1cc2c(NC3CCc4ccccc43)ncnc2[nH]1 (stereo not shown) [Compound 17] |  |  |  |  |  |  |  |  |  |  |  |  |  |  |  |  | Toxicity (% positive for DAPI takeup @ 50 μM) (HeLa MKYP cells [2]; Table 2): 2.3%; activation at 1.6 µM (HeLa MKYP cells [4]): 14.8% |
| C[C@@H](Nc1nccc2[nH]cnc12)c1ccccc1 [Compound 64] |  |  |  |  |  |  | 7.6% | 7.63% |  |  |  |  |  |  | < 4.30 | > 25 µM |  |
| FC(F)(F)c1cc2c(NCc3ccncn3)ncnc2[nH]1 [Compound 20] |  |  |  |  |  |  | 1.5% |  |  |  |  |  |  |  |  |  | activation at 6.3 µM (HeLa MKYP cells [4]; Table 3): 7.9% |
| COc1ncccc1CNc1ncnc2[nH]c(C(F)(F)F)cc12 [Compound 22] |  |  |  |  |  |  | 7.6% |  |  |  |  |  |  |  |  |  | activation at 6.3 µM (HeLa MKYP cells [4]; Table 3): 18.5% |
